Test results taken from patent US12453725B2, “Treatment of inflammatory disease” (Celleron Therapeutics Limited, priority 2019, dated 2025).

Key:
physchem = conditions: 25 °C, aqueous buffer
colon26 cells [1] = experiment: RNAseq, colon26 cells in vitro; assay type: cell-based, mouse
Description: The RNAseq data was aligned to the reference M. musculus genome (mm10) with STAR aligner and analysed for differential expression. […] We further evaluated transcripts identified in the colon26 RNAseq at the single gene level, focusing on murine genes which are homologues of the immune-related genes identified in human SW620 cells, which included genes in the murine MHC H2 complex. A number of H2 genes including class I and class II genes were induced including H2-D1, DMA, DMB1 and EB1 (FIG. 6).
SW620 cells were seeded into 6-well plates and left to adhere overnight. Cells were treated with 1 μM, 10 μM of CXD101 for 48 h. CT26 cells were seeded onto 100 mm plates and treated with 2.7 μM and 10 μM CXD101 for 72 h. After treatment cells were harvested and total RNA extracted by means of Promega ReliaPrep™ RNA Cell Miniprep System (Promega, USA). RNA was dissolved in RNAse free water and stored in −80° C. for future analysis. RNA concentration was measured by NanoDrop 2000 (Thermo Fisher Scientific, USA). Samples were qualified for library preparation if […]. Library preparation with poly (A) enrichment was performed by BGI.

[2] = Phase Ib/II clinical trial CTL-101-023, CXD101 with nivolumab, safety; assay type: in vivo, human; conditions: study CTL-101-023
Experimental: A clinical trial was conducted involving 55 subjects. The clinical trial protocol is summarized below: • Protocol Number: CTL-101-023 • Investigational Product: CXD101 and nivolumab Active Ingredient(s)/INN: • CXD101 or N-(2-aminophenyl)-4-(1-[(1,3-dimethyl-1H-pyrazol-4yl) methyl]piperidin-4-yl)benzamide is a Class I-selective histone deacetylase (HDAC) inhibitor. • Nivolumab is a programmed death receptor-1 (PD-1)-blocking antibody. […] 2. […] Subjects may continue to receive CXD101/nivolumab until complete response, disease progression, unacceptable toxicity, withdrawal of consent, or other medical problems supervene. • Efficacy will be measured using Immune Response Evaluation Criteria in Solid Tumours (iRECIST) Imaging studies, typically CT scan of chest, abdomen & pelvis, supplemented by MRI of liver when required, will be performed at Baseline and after every 6 weeks, with objective confirmation of response 6 weeks (+/−1 week) after observation. • Safety parameters will be assessed as in the Phase I study. […]

colon26 cells [3] = experiment: qPCR of single genes, colon26 cells; assay type: cell-based, mouse
Experimental: Total RNA purified from DMSO- or CXD101 treated cells was transcribed into cDNA according to the manufacturer's instructions (iScript cDNA Synthesis Kit, Bio-Rad, USA). qPCR was conducted according to the manufacturer's protocol (SsoAdvanced Universal SYBR Green Supermix, Bio-Rad Laboratories, USA) on CFX Connect Real-Time System thermocycler (Bio-Rad Laboratories, USA).

MC38 tumours = experiment: Syngeneic MC38 tumour model; set-up: species or system C57BL/6 mice; conditions: mouse, in vivo
Description: Syngeneic colorectal tumour xenograft Colon 26 model was induced in female BALB/c mice and MC38 model in C57BL/6 mice by subcutaneous injection of cell suspension into the flank following the anaesthetization by inhalation of isoflurane. Upon solid tumour formation Colon 26 animals were divided into six experimental groups treated respectively with: vehicle control (control), CXD101, anti-PD-1 mAb (BioXCell, USA), anti-CTLA4 mAb (BioXCell, USA), combination of CXD101 with anti-PD-1 antibody and combination of CXD101 with anti-CTLA4 antibody. MC38 animals were divided into four groups, without CTLA-4-based treatment. During the course of experiment animals were monitored twice daily and weighed three times a week. Mice in bad overall condition and/or tumour volume exceeding 1000 mm3 were euthanized. Tumour volume was calculated by two-dimensional measurement according to the formula: Tumour volume=(a×b^2)×0.5 in which a—represents the largest and, b—the perpendicular tumour diameter. The study was terminated on 36th day (Colon 26) or 48th day (MC38). All Colon 26 animal handling has been executed by Charles River Laboratories (Germany) personnel with compliance to all local and international laws and regulations. Experiments involving MC38 tumour model have been executed by Crown Bioscience San Diego (USA). CXD101 Clinical Trial in Combination with Nivolumab (CTL-101-023)

[4] = colon26 in vitro, log 2 FC >1, FDR 1%
[5] = out of 1142 differentially expressed genes

Cc1nn(C)cc1CN1CCC(c2ccc(C(=O)Nc3ccccc3N)cc2)CC1 [CXD101, N-(2-aminophenyl)-4-(1-[(1,3-dimethyl-1H-pyrazol-4-yl)methyl]piperidin-4-yl)benzamide]
solubility (physchem): ≥ 500 µg/mL
number of DEGs in vitro (colon26 cells [1]; colon26 cells): 2502
genes down-regulated (colon26 cells [1]; [4]): 611
genes up-regulated (colon26 cells [1]; [4]): 1891
immune-related DEGs, Immunome database (colon26 cells [1]; [5]): 15%
immune-related DEGs, Import database (colon26 cells [1]; [5]): 34%
immune-related DEGs, immunogenicity database (colon26 cells [1]; [5]): 36%
neutropenia due to myelosuppression [2]: varying degrees of neutropenia
expression of Ctla4, H2-D1, Tnfsrf8 (colon26 cells [3]): no effects
expression of H2-DMb1, H2-Eb1, H2-Dma, Ereg, Timp3, Ccl9, Cc20, II33, Rab3b (colon26 cells [3]): increased expression
expression of H2-T3 (colon26 cells [3]): decreased
MC38 tumour response (MC38 tumours): marginal response
